Values quoted from earlier work, collected in patent US20260078132A1, “SOLID FORMS OF AN INHIBITOR OF HIF AND METHODS OF USING SAME” (ONCOSPHERIX INC., priority 2022, published 2026).

Experiments:
p300 [1] = biological target: T1, p300 (Homo sapiens, UniProt Q09472)
p300 [2] = biological target: T1, p300; remark: listed apart in the source

T1 sequence (Q09472 whole entry, species assumed): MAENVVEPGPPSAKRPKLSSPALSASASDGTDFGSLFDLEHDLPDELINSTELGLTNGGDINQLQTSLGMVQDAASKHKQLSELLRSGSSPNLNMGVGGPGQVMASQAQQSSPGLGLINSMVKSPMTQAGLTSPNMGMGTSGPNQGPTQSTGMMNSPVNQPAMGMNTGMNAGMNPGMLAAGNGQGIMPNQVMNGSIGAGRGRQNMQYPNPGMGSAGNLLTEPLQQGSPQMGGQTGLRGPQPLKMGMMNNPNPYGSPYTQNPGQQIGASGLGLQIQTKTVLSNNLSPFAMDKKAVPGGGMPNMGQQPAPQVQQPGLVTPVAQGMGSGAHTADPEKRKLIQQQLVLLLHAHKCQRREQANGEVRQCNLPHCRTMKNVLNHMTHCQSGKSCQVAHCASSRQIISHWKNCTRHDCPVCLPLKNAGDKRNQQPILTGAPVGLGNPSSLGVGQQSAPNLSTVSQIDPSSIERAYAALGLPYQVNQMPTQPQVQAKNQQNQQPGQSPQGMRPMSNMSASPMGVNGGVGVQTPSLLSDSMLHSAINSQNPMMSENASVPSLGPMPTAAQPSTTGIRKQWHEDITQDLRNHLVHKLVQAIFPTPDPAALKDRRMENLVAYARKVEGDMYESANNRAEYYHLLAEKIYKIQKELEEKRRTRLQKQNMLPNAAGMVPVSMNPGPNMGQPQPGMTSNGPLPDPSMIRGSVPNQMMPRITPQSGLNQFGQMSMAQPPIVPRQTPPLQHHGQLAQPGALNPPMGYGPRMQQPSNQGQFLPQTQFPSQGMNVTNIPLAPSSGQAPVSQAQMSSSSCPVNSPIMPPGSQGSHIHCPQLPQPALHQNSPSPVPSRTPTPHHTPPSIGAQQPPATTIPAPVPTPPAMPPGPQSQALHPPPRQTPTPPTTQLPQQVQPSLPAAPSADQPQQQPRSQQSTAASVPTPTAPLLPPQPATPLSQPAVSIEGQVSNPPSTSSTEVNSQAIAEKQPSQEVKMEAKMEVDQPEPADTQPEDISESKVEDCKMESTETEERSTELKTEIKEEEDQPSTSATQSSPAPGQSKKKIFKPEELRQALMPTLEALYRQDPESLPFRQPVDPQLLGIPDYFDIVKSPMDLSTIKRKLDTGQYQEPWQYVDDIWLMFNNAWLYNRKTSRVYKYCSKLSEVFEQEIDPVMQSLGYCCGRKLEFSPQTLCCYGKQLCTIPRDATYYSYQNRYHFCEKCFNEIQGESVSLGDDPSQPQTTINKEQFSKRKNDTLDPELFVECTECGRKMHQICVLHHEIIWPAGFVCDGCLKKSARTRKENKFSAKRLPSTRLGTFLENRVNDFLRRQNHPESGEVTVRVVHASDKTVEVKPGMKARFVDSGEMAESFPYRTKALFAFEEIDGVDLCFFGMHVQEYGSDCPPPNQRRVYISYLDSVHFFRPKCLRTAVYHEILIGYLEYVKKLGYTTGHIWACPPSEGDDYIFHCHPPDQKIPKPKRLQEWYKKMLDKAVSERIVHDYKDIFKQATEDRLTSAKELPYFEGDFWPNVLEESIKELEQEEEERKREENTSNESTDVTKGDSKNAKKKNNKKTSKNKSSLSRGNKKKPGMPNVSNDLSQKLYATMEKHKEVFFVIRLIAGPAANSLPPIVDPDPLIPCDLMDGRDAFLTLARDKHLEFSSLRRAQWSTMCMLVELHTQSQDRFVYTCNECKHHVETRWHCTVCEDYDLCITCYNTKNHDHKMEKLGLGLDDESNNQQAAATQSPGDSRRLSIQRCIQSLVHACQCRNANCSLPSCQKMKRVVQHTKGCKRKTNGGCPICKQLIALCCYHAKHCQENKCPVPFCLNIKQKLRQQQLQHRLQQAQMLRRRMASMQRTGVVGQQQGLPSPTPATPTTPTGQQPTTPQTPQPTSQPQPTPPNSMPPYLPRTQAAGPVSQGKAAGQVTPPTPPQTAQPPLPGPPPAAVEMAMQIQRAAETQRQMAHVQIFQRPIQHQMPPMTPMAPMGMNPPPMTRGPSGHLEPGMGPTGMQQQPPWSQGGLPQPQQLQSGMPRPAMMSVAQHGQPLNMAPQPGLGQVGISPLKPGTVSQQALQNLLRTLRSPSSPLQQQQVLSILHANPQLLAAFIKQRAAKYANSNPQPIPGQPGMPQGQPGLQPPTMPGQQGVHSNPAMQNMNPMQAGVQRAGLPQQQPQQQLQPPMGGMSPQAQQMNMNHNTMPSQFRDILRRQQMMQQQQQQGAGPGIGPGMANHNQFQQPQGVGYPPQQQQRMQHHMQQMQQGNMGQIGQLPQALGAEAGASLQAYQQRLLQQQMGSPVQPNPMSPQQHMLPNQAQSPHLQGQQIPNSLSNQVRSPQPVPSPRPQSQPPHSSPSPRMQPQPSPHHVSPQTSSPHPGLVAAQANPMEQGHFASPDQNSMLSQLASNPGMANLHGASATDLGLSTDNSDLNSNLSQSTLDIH

For `COc1ccc(S(=O)(=O)N(Cc2ccc3c(n2)C=CC(C)(C)O3)C2CCC2)cc1OC` [Compound 9, N-Cyclobutyl-N-((2,2-dimethyl-2H-pyrano[3,2-b]pyridin-6-yl)methyl)-3,4-dimethoxybenzenesulfonamide], the “binding to p300” value (p300 [1]) is given as “binding of Compound 9 to p300” and the “pull-down of p300” value (p300 [2]) is given as “pull-down of p300 by Compound 9”.
